From patent publication US20110059114A1, “Compositions and Methods for the Treatment of Radioresistant Glioma Stem Cells” (DUKE UNIVERSITY, priority 2009, published 2011)

How the values were obtained:
Mcl-1 = assay: Immunoblotting of Mcl-1; assay type: cell-based, human; settings: 2 μM DAPT, T4302 CD133+ cells
Description: FIG. 5 is a set of immunoblots and a graph illustrating that the Notch pathway regulates radioresistance of glioma stem cells via the Akt pathway and Mcl-1. T4302 CD 133+ cells were infected with control lentivirus or lentivirus directing expression of NICD2. Cells were pre-treated with or without 2 μM DPAT for 4 hours and exposed to 3-Gy radiation. Irradiated cells were collected at 24 or 48 hours after radiation, and sham-irradiated cells were collected at 48 hours after radiation. (A, C, D) Protein levels of phospho-Akt (S473), total Akt, PTEN, Bcl-2, Bcl-xL, Mcl-1, phospho-p53 (S15), total p53 and PUMA were assessed by immunoblotting. Actin was blotted as the loading control. (B) Control cells or NICD2-expressing cells were pre-treated with 10 μM PI3K inhibitor, LY294002, or 50 μM Akt inhibitor III (SH-6), for 4 hours prior to radiation exposure. Relative caspase 3/7 activities were determined at 48 hours after radiation exposure. #: p<0.001, by one-way ANOVA.
Antibodies, DNA constructs, lentiviruses and other reagents. The antibodies purchased from Cell Signaling Technology (Danvers, M A) include phosphor-S296-Chk1 (2349), total Chk1 (2345), phosphor-T68-Chk2 (2661), total Chk2 (2662), phospho-5473 Akt (#9271), total Akt (#9272), PTEN (#9556), phospho-S15-p53 (#9286), Bcl-2 (#2870), Bcl-xL (#2764), Mcl-1 (#4572), Puma (#4976). […]

CD133+ glioma stem cells = assay: Caspase-Glo 3/7 assay, relative caspase 3/7 activities; assay type: cell-based, human
Description: FIG. 2 is a series of graphs illustrating that γ-secretase inhibitors enhance radiation-induced cell death in glioma stem cells. (A) T4302 CD 133+ cells were pre-treated with DAPT or L685,458 for 4 hours and irradiated at 3 Gy. Percentage of dead cells was determined by trypan blue exclusion assay at 48 hours after radiation exposure. (B) T4302 CD 133+ cells were treated with GSIs ±radiation as indicated. Cells were then plated at 3000 cells per well in 96-well plates. Relative caspase 3/7 activities were determined by normalizing caspase activities to the corresponding cell titers. (C) T4302 CD 133+ cells were treated as described in FIG. 2A. 24 or 48 hours after radiation exposure, cells were labeled with FITC-conjugated Annexin V staining kit (BD Sciences) according to manufacturer's instructions and analyzed by flow cytometry. […] Relative caspase 3/7 activities were determined at 72 hours after radiation. (E) T4302 CD133+ cells were pre-treated with DAPT at indicated concentrations for 4 hours and irradiated at 3 Gy. Relative caspase activities were determined at 48 or 72 hours after radiation. *: p<0.01 by Student's t-test; #: p<0.01 by one-way ANOVA.
The caspase activities at 48 or 72 hours after radiation were measured using the Caspase-Glo 3/7 assay (Promega) according to the manufacturer's instructions. The caspase activities were normalized to the corresponding cell titers to obtain the relative caspase 3/7 activities.

Structure (SMILES): CC(NC(=O)Cc1cc(F)cc(F)c1)C(=O)NC(C(=O)OC(C)(C)C)c1ccccc1 [DAPT, N-[N-(3,5-Difluorophenacetyl-L-alanyl)]-S-phenylglycine t-Butyl Ester]
- levels of Mcl-1 (Mcl-1): decreased
- levels of Mcl-1 proteins of a smaller size (Mcl-1): increased
- radiosensitizing effect (CD133+ glioma stem cells; 200 nM DAPT, 3 Gy): still being effective
- radiation-induced cell death (CD133+ glioma stem cells; 2 μM DAPT added 24 hours after radiation, T4105 or T4302 CD133+ cells): increased radiation-induced cell death
- radiation-induced cell death (caspase 3/7) (CD133+ glioma stem cells; 2 μM, radiation 1, 2 or 3 Gy, 72 hours): enhanced radiation-induced cell death
- radiosensitizing effects, dependence on concentration (CD133+ glioma stem cells; 3 Gy, 48 or 72 hours after radiation): concentration-dependent effect
- radiation-induced cell death of cells infected with control lentivirus (CD133+ glioma stem cells; irradiated, T4302 CD133+): sensitive to DAPT
